Experimental data from US6586188B1, “Method for identification of compounds that bind to β-tubulin and stimulate insulin secretion” (Biovitrum AB, priority 1999, dated 2003).

What was measured:
β-cells [1] = experiment: Dynamics of insulin release from column perifused β-cells; assay type: cell-based, ob/ob mice; details: for increase in insulin secretion: 1 μM glibenclamide in the presence of 5 μM nocodazole; for basal level of insulin secretion: 5 μM nocodazole (30 min) or 25 μM Taxol (15 min and throughout)
Protocol: (§1) Staining of microtubules with an antibody against tubulin in β-cells pretreated with vehicle, nocodazole or taxol (a). Data are representative of three determinations. Effect of nocodazole (b) and taxol (c) on the dynamics of insulin release from column perifused β-cells. Cells were incubated with 5 μM nocodazole for 30 min or 25 μM taxol for 15 min prior to starting perifusion of the cells. Taxol was present during the whole experiment. The control cells were incubated with their respective vehicle solutions. Protocols were initiated at the times indicated in the figure with either 1 μM glibenclamide or 15 mM glucose. The data represents the mean+SEM of four experiments.
(§2) Ob/ob mice were obtained from a locally bread colony at the animal facility within the Karolinska Institute, Stockholm, Sweden. The ob/ob mice were starved overnight. The animals were decapitated, the pancreas was excised from the abdominal cavity and pancreatic β-cells were isolated after collagenase digestion as previously described (Lemmark, A, (1974) Diabetologica 10, 431-438; Nilsson, T. et al. (1987) Biochem. J. 248, 329-336). The cells were kept overnight in RPMI 1640 medium supplemented with 11 mM glucose, 10% FCS, 100 μg/ml streptomycin and 100 IU/ml penicillin at 37° C. in a humidified atmosphere of 5% CO2 in air.
The basal medium used for isolation and for conducting the experiments was a buffer containing 125 mM NaCl; 5.9 mM KCl; 1.3 mM CaCl2; 1.2 mM MgCl2; and 25 mM HEPES (pH 7.4). BSA was added to the medium at the concentration of 1 mg/ml. The dynamics of insulin release were studied by perifusing β-cell aggregates mixed with Bio-Gel P4 polyacrylamide beads (BioRad, Richmond, Calif.), in a 0.5 ml column at 37° C. (Kanatsuna, T. et al. (1981) Diabetes 30, 231-234). The flow rate was 0.2 ml/min. Two-min fractions were collected and insulin content was analyzed by radioimmunoassay.
(§3) Cells were incubated with 5 μM nocodazole for 30 min or 25 μM taxol for 15 min prior to starting perifusion of the cells. Taxol was present during the whole experiment. The control cells were incubated with their respective vehicle solutions. Protocols were initiated at the times indicated in FIG. 3 with either 1 μM glibenclamide or 15 mM glucose. The data represent the mean±SEM of four experiments.

[2] = test system: Tubulin from bovine brain; experiment: Tubulin polymerization in vitro (optical density at 340 nm); assay type: biochemical; details: 0.17 mM glibenclamide, 2.9 mg/ml tubulin, versus DMSO control
Protocol: Glibenclamide accelerates microtubule growth. (a): Experimental data showing the increase in optical density at 340 nm, resulting from tubulin polymerization in vitro, as a function of time. Microtubule growth was induced by increasing the temperature from 15° C. (at t=0) to 35° C. The concentration of bovine brain tubulin was 2.9 mg/ml and the buffer solution contain 80 mM Pipes, 1 mM MgCl2, 1 mM EGTA, 1 mM GTP, 2.1% DMSO and 10% glycerol at pH 6.9. The black symbols indicate the presence of 0.17 mM glibenclamide whereas the gray symbols represent the controls in its absence. The polymerization was followed simultaneously for one pair at the time, with each pair being a glibenclamide sample and a control, to ensure comparisons are made on identical protein samples. The data presented is representative of four experiments. (b): The rate of tubulin polymerization as measured by the change in OD with time (dOD/dt) as a function of time. The experimental conditions were the same as in (a). Black lines indicate the presence of glibenclamide and gray lines its absence. […]
Tubulin from bovine brain was purchased from Cytoskeleton Inc. in aliquots of 1 mg lyophilized protein. […] The experiment was then started by altering the multicell holder set temperature to 35° C. and the absorbance at 340 nm was measured as a function of time. […]

pancreatic β-cells = experiment: Binding of [125I]glibenclamide to intact β-cells and subcellular fractions, UV cross-linking, SDS-PAGE, autoradiography; set-up: species or system ob/ob mice
Source text: as §2
Binding of [^125I]glibenclamide (Amersham, UK) was performed in intact β-cells and in subcellular fraction derived therefrom. Isolated pancreatic islets from ob/ob mice (250-300) were homogenized in 300 μl buffer containing (in mM): HEPES 20, MgCl2 1, EGTA 1, EDTA 1, PMSF 1, protease inhibitors (leupeptin, aprotinin, pepstatin, antipain) 0.5 μg/ml in Eppendorf tubes using a motor pestle homogenizer. The homogenized material was centrifuged (800×g for 10 min) and the resultant pellet was resuspended again in 200 μl of homogenization buffer and centrifuged as above. […] This material was further analyzed by SDS-PAGE separation and autoradiography (FIG. 1b). […]

β-tubulin = experiment: Confocal microscopy co-localization of BODIPY FL glibenclamide and anti β-tubulin antibody in β-cells; assay type: cell-based, ob/ob mice; details: primary cultures of β-cells, BODIPY FL glibenclamide staining
Protocol: Further analysis of sulfonylureas binding to β-tubulin was performed using confocal microscopy in primary cultures of β-cells obtained from ob/ob mice. Isolated β-cells in culture were incubated in the presence or absence of different agonists for 3 min at 23° C. The incubation time was terminated by fixation of the cells with 4% formaldehyde in PBS for 10 min at room temperature. After rinsing twice with PBS, cells were incubated in acetone at −20° C. for 5 min and then quenched with PBS containing 1% BSA for 30 min. BODIPY® FL glibenclamide was purchased from Molecular Probes, Inc., Catalog Number B-7439; http://www.probes.com). The green-fluorescent BODIPY® FL fluorophore has excitation/emission maxima ˜503/512 nm. Staining with BODIPY® FL glibenclamide, primary anti β-tubulin antibody (Amersham, UK) and secondary Texas Red®-conjugated antibody (Molecular Probes Inc.) was performed at room temperature for 1 h. After rinsing with PBS the coverslips were mounted (SlowFade light, Molecular Probes, Eugene, Oreg.) and examined using a confocal laser scanning microscope (Leica TCS NT, Leica Lasertechnik GmbH, Heidelberg, Germany). Excitation wavelengths 488 nm and 568 nm were used. The confocal microscope was equipped with an Ar/Kr laser, a double dicroic mirror for rhodamine/fluorescein and a 63× lens (Leica PL APO 63×/1.32×0.6 oil). […]

β-cells [3] = experiment: Staining of microtubules with an antibody against tubulin in pretreated β-cells; assay type: cell-based, ob/ob mice; details: 5 μM nocodazole or 25 μM Taxol
Protocol: as §1, §3

[4] = test system: isolated rat islets of Langerhans; details: cited from earlier work

| Compound | increase in insulin secretion (β-cells [1]; 3 mM glucose) | increase in insulin secretion (β-cells [1]; 15 mM glucose) | rate of change in absorbance (rate of tubulin polymerization) ([2]; 15° C. to 35° C.) | extent of tubulin polymerization [2] | proteins associated with binding, cytosolic fraction (pancreatic β-cells) | co-localization with β-tubulin (β-tubulin) | basal level of insulin secretion (β-cells [1]) | effect on increase in insulin secretion elicited by 1 μM glibenclamide (β-cells [1]; 25 μM Taxol, 3 mM and 15 mM glucose) | changes in microtubule organization (β-cells [3]) | effect on glucose-stimulated insulin secretion [4] |
| --- | --- | --- | --- | --- | --- | --- | --- | --- | --- | --- |
| COc1ccc(Cl)cc1C(=O)NCCc1ccc(S(=O)(=O)NC(=O)NC2CCCCC2)cc1 [glibenclamide, 5-Chloro-N-[2-[4-[[[(cyclohexylamino)carbonyl]amino]sulfonyl]phenyl]ethyl]-2-methoxybenzamide] | 5 fold | one-fold increase | faster | not a strong influence | associated with two proteins having a molecular mass of approximately 47 and 65 kDa | indicated an interaction between glibenclamide and β-tubulin | – | – | – | – |
| CC(=O)O[C@H]1C(=O)[C@@]2(C)[C@H]([C@H](OC(=O)c3ccccc3)[C@]3(O)C[C@H](OC(=O)[C@H](O)[C@@H](NC(=O)c4ccccc4)c4ccccc4)C(C)=C1C3(C)C)[C@]1(OC(C)=O)CO[C@@H]1C[C@@H]2O [Taxol] | – | – | – | – | – | – | did not affect | prevented the increase | nor did they induce visible changes | inhibit |
| COC(=O)Nc1nc2ccc(C(=O)c3cccs3)cc2[nH]1 [nocodazole] | – | – | – | – | – | – | did not affect | – | nor did they induce visible changes | inhibit |
